Data published in ChEMBL document CHEMBL1130057, “Tyrosine kinase inhibitors. 12. Synthesis and structure-activity relationships for 6-substituted 4-(phenylamino)pyrimido[5,4-d]pyrimidines designed as inhibitors of the epidermal growth factor receptor” (J Med Chem, 1997).

Experiments:
[1] = target: T1, Epidermal growth factor receptor (Homo sapiens, UniProt P00533); experiment: Tested for ability to inhibit autophosphorylation of the Epidermal growth factor receptor in human epidermoid carcinoma cells
T1 sequence (P00533 whole entry): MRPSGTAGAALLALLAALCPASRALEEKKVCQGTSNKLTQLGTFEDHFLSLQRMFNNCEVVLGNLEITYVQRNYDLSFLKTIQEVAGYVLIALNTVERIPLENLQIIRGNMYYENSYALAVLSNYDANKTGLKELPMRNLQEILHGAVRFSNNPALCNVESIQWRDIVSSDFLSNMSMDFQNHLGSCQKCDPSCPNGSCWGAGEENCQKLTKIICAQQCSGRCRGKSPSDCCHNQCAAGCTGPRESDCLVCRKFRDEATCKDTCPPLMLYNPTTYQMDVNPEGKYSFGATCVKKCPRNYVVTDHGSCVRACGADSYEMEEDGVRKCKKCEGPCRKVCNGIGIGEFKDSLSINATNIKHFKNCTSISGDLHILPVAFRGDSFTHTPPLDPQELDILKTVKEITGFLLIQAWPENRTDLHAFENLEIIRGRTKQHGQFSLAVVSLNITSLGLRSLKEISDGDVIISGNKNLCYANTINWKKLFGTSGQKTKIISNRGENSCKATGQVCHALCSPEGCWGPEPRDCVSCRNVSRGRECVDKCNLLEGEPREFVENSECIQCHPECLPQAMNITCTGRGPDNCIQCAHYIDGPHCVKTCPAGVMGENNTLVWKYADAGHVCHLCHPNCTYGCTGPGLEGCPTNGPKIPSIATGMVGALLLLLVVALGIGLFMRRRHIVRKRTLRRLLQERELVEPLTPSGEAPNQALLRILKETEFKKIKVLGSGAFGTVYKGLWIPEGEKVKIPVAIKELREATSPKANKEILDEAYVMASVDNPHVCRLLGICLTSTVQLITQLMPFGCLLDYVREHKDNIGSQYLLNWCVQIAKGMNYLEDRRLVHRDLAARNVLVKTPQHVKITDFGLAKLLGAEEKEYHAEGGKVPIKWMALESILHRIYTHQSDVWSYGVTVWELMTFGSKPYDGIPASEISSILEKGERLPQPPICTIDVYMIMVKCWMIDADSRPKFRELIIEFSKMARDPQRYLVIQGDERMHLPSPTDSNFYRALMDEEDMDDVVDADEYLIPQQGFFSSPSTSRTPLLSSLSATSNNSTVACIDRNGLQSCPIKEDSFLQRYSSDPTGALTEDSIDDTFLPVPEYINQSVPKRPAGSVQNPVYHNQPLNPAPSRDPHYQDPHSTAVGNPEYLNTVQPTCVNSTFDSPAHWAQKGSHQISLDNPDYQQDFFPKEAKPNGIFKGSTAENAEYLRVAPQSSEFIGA

[2] = target: T1, Epidermal growth factor receptor; experiment: Inhibition of phosphorylation of phospholipase C gamma1 by Epidermal growth factor receptor, from human A431 carcinoma cell vesicles
[3] = target: T1, Epidermal growth factor receptor; experiment: Tested for inhibition of PLC gamma-derived substrate in Epidermal growth factor receptor stimulated A431 cells
[4] = target: T1, Epidermal growth factor receptor; experiment: Tested for inhibition of autophosphorylation in Epidermal growth factor receptor stimulated A431 cells

| SMILES | IC50 [2] [nM] | also measured |
| --- | --- | --- |
| Brc1cccc(Nc2ncnc3cnc(NCCc4c[nH]cn4)nc23)c1 | 0.25 | IC50 [1]: 5.1 nM |
| Brc1cccc(Nc2ncnc3cnc(NCCCn4ccnc4)nc23)c1 | 2.3 | – |
| CNc1ccc2ncnc(Nc3cccc(Br)c3)c2c1 | – | IC50 [3]: 11 nM |
| Cc1cccc(Nc2ncnc3cnc(N(C)C)nc23)c1 | 4 | – |
| Cc1cccc(Nc2ncnc3cnc(Cl)nc23)c1 | 380 | – |
| CNc1ncc2ncnc(Nc3cccc(Br)c3)c2n1 | 0.76 | IC50 [1]: 30 nM |
| Cc1cccc(Nc2ncnc3cnc(NCCc4c[nH]cn4)nc23)c1 | 3 | – |
| CN(C)c1cc2c(Nc3cccc(Br)c3)ncnc2cn1 | – | IC50 [4]: 12 nM; IC50 [3]: 2.6 nM |
| Cc1cccc(Nc2ncnc3cnc(N)nc23)c1 | 17 | – |
| Brc1cccc(Nc2ncnc3cnc(NCCN4CCOCC4)nc23)c1 | 0.81 | IC50 [1]: 3.1 nM |

The next lines start with results.

| IC50 [2] [nM] | SMILES | also measured |
| --- | --- | --- |
| 82 | Clc1ncc2ncnc(Nc3cccc(Br)c3)c2n1 | – |
| 2.3 | Cc1cccc(Nc2ncnc3cnc(NCCN4CCOCC4)nc23)c1 | – |
| 2550 | Clc1ncc2ncnc(Nc3ccccc3)c2n1 | – |
| 13 | CNc1ncc2ncnc(Nc3ccccc3)c2n1 | – |
| 1.5 | Nc1ncc2ncnc(Nc3cccc(Br)c3)c2n1 | – |
| 3.8 | COc1ncc2ncnc(Nc3cccc(Br)c3)c2n1 | – |
| 35 | CN(C)CCNc1ncc2ncnc(Nc3cccc(Br)c3)c2n1 | – |
